These results are taken from paper PMC4274170 (Toxicology letters, 2014).

Where two headings read alike, the source gives them in different places.

The conditions of data set [1]: human.
For data set [2] the following is noted: mouse, microsomes.
Data set [3] is described as follows: in vitro. The settings on record: female, B6129SF1/J, mouse, pH 7.4.
Data set [4] in a line: in vitro. The settings on record: female, human, pH 7.4, Km.
For data set [5] the following is noted: rat, microsomes.
A short description of data set [6]: In vitro metabolism.
A short description of data set [7]: in vitro. To be noted: male, Sprague-Dawley, rat, pH 7.4.
The test system of data set [8] is humans. To be noted: ref WHO, 2010, 2012; cited from earlier work.
Data set [9] is described as follows: In vitro metabolism. The data set is classed as in vitro ADME, mouse.
Data set [10] can be described thus: In vitro metabolism. This is another data set of the same source.
A short description of data set [11]: In vitro metabolism. To be noted: female human.
[12] abbreviates: pregnant relative to naïve female mice.

Usually Km stands for the substrate concentration at which the rate is half of its maximum. Regarding `c1ccc2c(c1)cc1ccc3cccc4ccc2c1c34` [B[a]P, benzo[a]pyrene], the “B[a]P CLINT exceeded DBC CLINT, margin (in vitro half-life method)” value is listed as 13.3 fold in data set [1] (female, microsomes, pH 7.4); 10.6 fold in [2] (female, B6129SF1/J, pH 7.4); 1.4 fold in data set [5] (male, Sprague-Dawley, pH 7.4). The “CLINT for B[a]P exceeded that of DBC, margin (Michaelis-Menten regressions)” value in [1] (female, microsomes, pH 7.4) is 3.3 fold; in data set [2] (female, B6129SF1/J, pH 7.4), 9.0 fold; in data set [5] (male, Sprague-Dawley, pH 7.4), 2.6 fold. Also, the Km in [1] (female, pH 7.4) came out at 0.725 ± 0.581 µM; in data set [3], 4.97 ± 1.96 µM; in [4] it was 0.73 µM; in [7] it was 18 ± 12.9 µM. The “Organism level CLINT, MM” value in data set [1] (microsomes) came to 27.16 ± 29.98 ml/min/kg body weight; in data set [2], 1445.2 ± 778.0 ml/min/kg body weight; in [5], 65.90 ± 71.68 ml/min/kg body weight. For the same compound, the “Organism level CLINT, t 1/2” value is recorded as 54.69 ml/min/kg body weight in data set [1] (microsomes), 2699.0 ± 1803.4 ml/min/kg body weight in [2] and 51.34 ± 22.19 ml/min/kg body weight in data set [5]. For the same compound, the results for the “Tissue level CLINT, t 1/2” value in data set [1] (microsomes), in data set [2] and in [5] were 2.13 ml/min/g tissue, 48.53 ± 32.79 ml/min/g tissue and 1.40 ± 0.61 ml/min/g tissue, respectively. Also, in data set [6] (male rat relative to female mouse), the “KM in male rats exceeded that in female mice” value is listed as 3.6 fold.

As for `c1ccc2c(c1)cc1ccc3cccc4c5ccccc5c2c1c34` [DBC, dibenzo[def,p]chrysene], the IARC classification entry in [8] is “Group 2A”. In addition, the Km came out at 3.28 ± 1.38 µM in data set [9] (female, B6129SF1/J, mouse, liver microsomes of pregnant (GD17) mice, pH 7.4); 6.63 ± 1.01 µM in [10] (female, B6129SF1/J, mouse, pH 7.4); 7.28 ± 4.99 µM in data set [6] (male, Sprague-Dawley, rat, pH 7.4). Also, the “Tissue level CLINT, MM” value in [9] (pregnant mouse, Michaelis-Menten method (Vmax/Km scaled)) is 3.81 ± 2.28 ml/min/g tissue; in [10] (naïve mouse, Michaelis-Menten method (Vmax/Km scaled)), 2.92 ± 0.71 ml/min/g tissue; in data set [11] (Michaelis-Menten method (Vmax/Km scaled)) it was 0.32 ± 0.46 ml/min/g tissue; in [6] (male rat, Michaelis-Menten method (Vmax/Km scaled)) it was 0.69 ± 0.73 ml/min/g tissue. In addition, the “Organism level CLINT, MM” value in data set [9] (pregnant mouse, Michaelis-Menten method, liver weight 41.8 g per kg body weight) is reported as 159.43 ± 95.51 ml/min/kg body weight; in data set [10] (naïve mouse, Michaelis-Menten method, liver weight 55 g per kg body weight), 160.71 ± 38.94 ml/min/kg body weight; in data set [11] (Michaelis-Menten method, liver weight 25.7 g per kg body weight), 8.19 ± 11.73 ml/min/kg body weight; in [6] (male rat, Michaelis-Menten method, liver weight 36.6 g per kg body weight) it was 25.14 ± 26.85 ml/min/kg body weight. In addition, the “Tissue level CLINT, t 1/2” value was found to be 3.31 ± 1.75 ml/min/g tissue in [9] (pregnant mouse, in vitro half-life method); 4.59 ± 0.53 ml/min/g tissue in data set [10] (naïve mouse, in vitro half-life method); 0.16 ml/min/g tissue in data set [11] (in vitro half-life method); 1.01 ± 0.30 ml/min/g tissue in data set [6] (male rat, in vitro half-life method). In data set [9] (setting [12]), the “KM reduced in the pregnant animal” value stood at 51%. In addition, the “VMAX reduced in the pregnant animal” value in [9] (setting [12]) came out at 35%. Moreover, the “higher tissue level CLINT in the pregnant animal (Michaelis-Menten regression method)” value in [9] (setting [12]) is on record as 30%. The “tissue level CLINT lower in the pregnant animal (in vitro half-life method)” value in data set [9] (setting [12]) was found to be 28%. Besides, the Vmax in [10] (naïve mouse liver microsomes, Michaelis-Menten regression of substrate depletion) was found to be 0.646 ± 0.055 nmol/min/mg MSP; in data set [6] (male rat liver microsomes, Michaelis-Menten regression of substrate depletion), 0.167 ± 0.064 nmol/min/mg MSP. The “Organism level CLINT, t 1/2” value in data set [10] (naïve mouse, in vitro half-life method, liver weight 55 g per kg body weight) came out at 252.18 ± 29.26 ml/min/kg body weight; in data set [11] (in vitro half-life method, liver weight 25.7 g per kg body weight), 4.23 ml/min/kg body weight; in [6] (male rat, in vitro half-life method, liver weight 36.6 g per kg body weight), 37.05 ± 10.96 ml/min/kg body weight.
